Assay results taken from article PMC2825274 (PLoS ONE, 2010).
≈ marks a conversion by molar mass, not a printed value. Where “and” joins values, the source holds several entries; their conditions need not be identical. Equal values may be shown once.

Assays:
Assay type in all cases: cell-based, influenza A virus
[1] = tested on: influenza A/California/10/09 (H1N1) (CA10), S31N amantadine-resistant
[2] = tested on: A/Mississippi/3/01 (H1N1) H274Y (MS H274Y) oseltamivir-resistant
[3] = tested on: A/New Caledonia/20/99 (H1N1) V27A (NC V27A)
[4] = tested on: A/Wisconsin/67/05 (H3N2) S31N (WI S31N)
[5] = tested on: A/Hawaii/21/07 (H1N1) H274Y (HI H274Y)

Q: What does the source list for `NC(=O)c1ncn([C@@H]2O[C@H](CO)[C@@H](O)[C@H]2O)n1` [Ribavirin]?
A: Fold Reduction in EC50 Compared to (B) [1]: 1.5; Fold Reduction in EC50 Compared to (C) [1]: 2.2; EC50 [2]: 3.6 µg/mL (≈ 14.7 µM)

Q: Which results are given for `NC12CC3CC(CC(C3)C1)C2` [Amantadine]?
A: Fold Reduction in EC50 Compared to (A) [1]: 1.8 and 2.0 and 3.2; Fold Reduction in EC50 Compared to (B) [1]: 1.7; Fold Reduction in EC50 Compared to (C) [1]: 1.6; amantadine concentration with significant contribution to the synergy of the TCAD regimen [1]: ≥ 0.32 µg/mL; contribution to the total synergy of the TCAD regimen [1]: 44%; EC50 [2]: 0.060 µg/mL (≈ 0.397 µM); activity as a single agent [3]: no activity; amantadine concentration at which the increase in synergy of the TCAD regimen was observed [3]: 0.32 µg/mL; activity as a single agent [4]: no activity; amantadine concentration at which the increase in synergy of the TCAD regimen was observed [4]: 1 µg/mL

Q: For Oseltamivir carboxylate, which “Fold Reduction in EC50 Compared to (B)” value [1] is on record?
A: Its value is 6.5.

Q: What about the “Fold Reduction in EC50 Compared to (C)” value [1] of the same compound?
A: The value was 6.5.

Q: What about the EC50 [2] of the same compound?
A: The EC50 was 73 µg/mL.

Q: What about the “Fold Reduction in EC50 Compared to (A)” value [2] of the same compound?
A: The value was 21.

Q: And the “Fold Reduction in EC50 Compared to (B)” value [2]?
A: The value was over 29.

Q: What about the “Fold Reduction in EC50 Compared to (C)” value [2] of the same compound?
A: Its value is over 29.

Q: And the “antiviral activity as a single agent” value [2]?
A: Its value is “no antiviral activity”.

Q: What about the “contribution to the total synergy of the TCAD regimen” value [2] of the same compound?
A: The value was 76%.

Q: What about the “fold reduction in susceptibility” value [2] of the same compound?
A: Its value is 1480 fold.

Q: And the “oseltamivir carboxylate concentration from which it contributed to the synergy of the TCAD regimen” value [2]?
A: Its value is at least 0.1 µg/mL.

Q: And the “Fold Reduction in EC50 Compared to (B)” value [5]?
A: The value was 3.3.

Q: And the “Fold Reduction in EC50 Compared to (C)” value [5]?
A: The value was 4.2.

Q: And the “antiviral activity as a single agent” value [5]?
A: Its value is “no antiviral activity”.

Q: What about the “contribution to the total synergy of the TCAD regimen” value [5] of the same compound?
A: The value was 83%.

Q: And the “fold reduction in susceptibility” value [5]?
A: Its value is 300 fold.

Q: And the “oseltamivir carboxylate concentration from which it contributed to the synergy of the TCAD regimen” value [5]?
A: The value was at least 0.32 µg/mL.
